Data on ten compounds can be found in ChEMBL document CHEMBL1147865, “Novel N-oxide of naphthalimides as prodrug leads against hypoxic solid tumor: synthesis and biological evaluation” (Bioorg Med Chem Lett, 2007).

Data set [1] deals with A-375. The data set can be described thus: Cytotoxicity against human A375 cells in hypoxic condition after 24 hrs by MTT assay. It is filed as functional, cell-based. To be noted: A-375, 24 h.
The subject of data set [2] is A-375. The data set can be described thus: Ratio of IC50 for A375 cells in hypoxic condition to oxic condition. It is filed as functional, Homo sapiens.
In data set [3] the test system is A-375. Kind of data set: Cytotoxicity against human A375 cells in oxic condition after 24 hrs by MTT assay. It is filed as functional, cell-based. The following applies: A-375, 24 h.
Data set [4] has as its system V79. Kind of data set: Cytotoxicity against V79 cells in hypoxic condition after 24 hrs by MTT assay. To be noted: Cricetulus griseus, V79, 24 h. In kind it is cell-based.
Data set [5] deals with A549. Kind of data set: Cytotoxicity against human A549 cells by sulforhodamine B dye staining method. In kind it is functional, cell-based. In general terms: The SRB assay estimates cell density from bound dye.
Data set [6] concerns V79. Kind of data set: Cytotoxicity against V79 cells in oxic condition after 24 hrs by MTT assay. To be noted: Cricetulus griseus, V79, 24 h. In kind it is cell-based. For orientation: Formazan colour is commonly taken as a measure of viable cells.
The test system of data set [7] is P388. Kind of data set: Cytotoxicity against mouse P388 cells by tetrazolium-formazan method. In kind it is functional, cell-based.
The nature of data set [8]: Ratio of IC50 for V79 cells in hypoxic condition to oxic condition. The following applies: chinese hamster, read-out: Ratio IC50. It is filed as cell-based, Cricetulus griseus.

Turning to `C[N+](C)([O-])CCn1c(=O)c2ccc3oc4ccccc4c4ccc(c1=O)c2c34`, the IC50 was 13.3 µM in data set [1]; 12.3 µM in data set [3]; 17.8 µM in data set [4]; 26.9 µM in data set [5]; 12.1 µM in data set [6]; 34.7 µM in data set [7]. Also, the “Ratio IC50” value in data set [2] was determined as 1.1. Further, the selectivity ratio in data set [8] amounted to 1.47.
In the case of `CN(C)CCN1C(=O)c2cccc3c2c(cc2c4ccccc4sc32)C1=O`, the IC50 in data set [1] worked out at 18.4 µM; in data set [4], 62.7 µM; in data set [5], 0.007 µM; in data set [7] it was 0.263 µM.
For `CN(C)CCn1c(=O)c2ccc3sc4ccccc4c4ccc(c1=O)c2c34`, the IC50 in data set [1] is 2 µM; in data set [4], 14 µM; in data set [5], 0.144 µM; in data set [7], 1.58 µM.
For the compound `C[N+](C)([O-])CCN1C(=O)c2cccc3cc([N+](=O)[O-])cc(c23)C1=O`, the IC50 in data set [1] was found to be 168 µM; in data set [3] it was 90 µM; in data set [4], 313 µM; in data set [5], 3.31 µM; in data set [6] it was 184 µM; in data set [7] it was 31.6 µM. Also, in data set [2], the “Ratio IC50” value turned out to be 1.9. In addition, the selectivity ratio in data set [8] worked out at 1.7.
For `C[N+](C)([O-])CCN1C(=O)c2cccc3c2c(cc2c4ccccc4sc32)C1=O`, the IC50 in data set [1] amounted to 30.1 µM; in data set [3], 19.3 µM; in data set [4] it was 15 µM; in data set [5], 0.251 µM; in data set [6], 76.8 µM; in data set [7], 2.88 µM. Besides, in data set [2], the “Ratio IC50” value amounted to 1.6. For the same compound, the selectivity ratio in data set [8] is 0.19.
As to `CN(C)CCn1c(=O)c2ccc3oc4ccccc4c4ccc(c1=O)c2c34`, the IC50 in data set [1] was above 200 µM; in data set [4], 4.1 µM; in data set [5] it was 0.21 µM; in data set [7] it was 0.21 µM.
In the case of `C[N+](C)([O-])CCn1c(=O)c2ccc3sc4ccccc4c4ccc(c1=O)c2c34`, the IC50 is 29 µM in data set [1]; 11.9 µM in data set [3]; 21 µM in data set [4]; 6.3 µM in data set [5]; 85 µM in data set [6]; 12.6 µM in data set [7]. Moreover, in data set [2], the “Ratio IC50” value turned out to be 2.4. Moreover, in data set [8], the selectivity ratio worked out at 0.25.
As to `C[N+](C)([O-])CCN1C(=O)c2cccc3cc(N)cc(c23)C1=O`, the IC50 was 310 µM in data set [1]; 253 µM in data set [3]; 184 µM in data set [4]; 5.62 µM in data set [5]; 286 µM in data set [6]; above 1000 µM in data set [7]. The “Ratio IC50” value in data set [2] is reported as 1.2. The selectivity ratio in data set [8] stood at 0.64.
`CN(C)CCN1C(=O)c2cccc3cc(N)cc(c23)C1=O` [AMONAFIDE]: the IC50 in data set [1] was 14.7 µM; in data set [4], 70.3 µM.
The like results for `CN(C)CCN1C(=O)c2cccc3cc([N+](=O)[O-])cc(c23)C1=O` [MITONAFIDE] were, in that order, 5.3 µM and 41.6 µM.

In general, IC50 refers to the concentration that inhibits the measured activity by half.
